Measured values from patent US6784173B2, “Aromatic dicarboxylic acid derivatives” (Hoffmann-La Roche Inc., priority 2001, dated 2004).

Tested on: HT-29 cells (human colon carcinoma cell line)
Test: MTT tetrazolium dye proliferation assay on HT-29 cells
Format: cell-based
Conditions: MTT assay after 5 days of compound exposure, 30 uM to 1.5 nM, read-out: IC50 HT29
Procedure: MTT (tetrazolium dye proliferation assay) is widely used for the quantitative determination of cytotoxic effects or in vitro chemosensitivity of tumor cells. The assay is based on the cleavage of the yellow tetrazolium salt MTT to purple formazan crystals by metabolic active cells. For details, see Rubinstein, L. V., et al., J. Natl. Cancer Inst. 82 (1990) 1113-1118.
The following procedure was performed: HT-29 cells (human colon carcinoma cell line) were cultivated in RPMI 1640, 2.5% FCS, 2 mM Glutamine, 100 u/ml Penicillin, 100 ug/ml Streptomycin. For the assay the cells were seeded in 384 well plates, 900 cells per well, in the same medium The next day compounds (dissolved 10 mM in DMSO) were added in various concentrations ranging from 30 uM to 1.5 nM. After 5 days the MTT assay was done mainly according to the instructions of the manufacturer (Cell proliferation kit I, MTT, form Roche Molecular Biochemicals). In brief: MTT labeling reagent was added to a final concentration of 0.5 mg/ml, added and incubated for 4 hrs at 37 C., 5% CO2. During this incubation time purple formazan crystals are formed. After addition of the solubilization solution (20% SDS in 0.02 M HCl) the plates were incubated overnight at 37 C, 5% CO2. After careful mixing plates were measured in Victor 2 (scanning multiwell spectrophotometer, Wallac) at 550 nm.
A decrease in number of living cells results in a decrease in the total metabolic activity in the sample. The decrease directly correlates to the amount of purple colour resulting from the solubilization of the purple formazan crystals. Determination of IC50 was done using XL-fit.

Row | Compound | IC50 [nM]
1 | O=C(NO)c1ccc(C(=O)NCc2cccc(Br)c2)s1 [Example 15, No. 94, Thiophene-2,5-dicarboxylic acid 2-(3-bromo-benzylamide) 5-hydroxyamide] | 70
2 | O=C(NO)c1ccc(C(=O)NCc2ccc(C(F)(F)F)cc2)s1 [Example 2, Thiophene-2,5-dicarboxylic acid 2-hydroxyamide 5-(4-trifluoromethyl-benzylamide)] | 110
3 | CC(CCc1ccccc1)NC(=O)c1ccc(C(=O)NO)s1 (centres unmarked) [Example 15, No. 128, Thiophene-2,5-dicarboxylic acid 2-hydroxyamide 5-[(1-methyl-3-phenyl-propyl)-amide]] | 20
4 | CC(C)CCCC(C)NC(=O)c1ccc(C(=O)NO)s1 (centres unmarked) [Example 15, No. 81, thiophene-2,5-dicarboxylic acid 2-[(1,5-dimethyl-hexyl)-amide] 5-hydroxyamide] | 30
5 | Cc1cc(C)cc(CNC(=O)c2ccc(C(=O)NO)s2)c1 [Example 5, Thiophene-2,5-dicarboxylic acid 2-(3,5-dimethyl-benzylamide) 5-hydroxyamide] | 50

Further molecules by falling IC50, results first:

Row | IC50 [nM] | Compound
6 | 170 | O=C(NO)c1ccc(C(=O)NCc2ccc(Cl)c(Cl)c2)s1 [Example 15, No. 139, Thiophene-2,5-dicarboxylic acid 2-(3,4-dichloro-benzylamide) 5-hydroxyamide]
7 | 140 | O=C(NO)c1ccc(C(=O)NCCC(c2ccccc2)c2ccccc2)s1 [Example 15, No. 90, thiophene-2,5-dicarboxylic acid 2-[(3,3-diphenyl-propyl)-amide] 5-hydroxyamide]
8 | 140 | O=C(NO)c1ccc(C(=O)NCc2cccc(Cl)c2)s1 [Example 4, Thiophene-2,5-dicarboxylic acid 2-(3-chloro-benzylamide) 5-hydroxyamide]
9 | 70 | CC(C)(C)c1ccc(CNC(=O)c2ccc(C(=O)NO)s2)cc1 [Example 15, No. 98, Thiophene-2,5-dicarboxylic acid 2-(4-tert-butyl-benzylamide) 5-hydroxyamide]
10 | 50 | O=C(NO)c1ccc(C(=O)NCc2cc(C(F)(F)F)cc(C(F)(F)F)c2)s1 [Example 15, No. 93, Thiophene-2,5-dicarboxylic acid 2-(3,5-bis-trifluoromethyl-benzylamide) 5-hydroxyamide]
11 | 40 | O=C(NO)c1ccc(C(=O)NCCOc2ccccc2)s1 [Example 15, No. 104, Thiophene-2,5-dicarboxylic acid 2-hydroxyamide 5-[(2-phenoxy-ethyl)-amide]]
